From ChEMBL document CHEMBL5532715, “Rogersonins C-F, 9H-Imidazo[2,1-i]purine-Incorporating Adenine-Polyketide Hybrids from an Ophiocordyceps-Associated Clonostachys rogersoniana” (2024)
The source made the active and inactive calls. The calls are words filed in the database; no cut-off is given here.

What was measured:
A549 [1] = test: Antiproliferative activity against human A549 cells incubated for 72 hrs by MTT assay; assay type: functional, cell-based
MCF7 = test: Antiproliferative activity against human MCF7 cells incubated for 72 hrs by MTT assay; assay type: functional, cell-based
MDA-MB-231 [2] = test: Antiproliferative activity against human MDA-MB-231 cells incubated for 72 hrs by MTT assay; assay type: functional, cell-based
[3] = Downregulation of cell surface PD-L1 protein expression in human A549 cells assessed as test to control ratio at 5 uM incubated for 24 hrs by Western blot analysis; assay type: functional
[4] = Downregulation of cell surface PD-L1 expression in human MDA-MB-231 cells assessed as mean fluorescence intensity at 10 uM incubated for 24 hrs by phycoerythrin staining based flow cytometry analysis (reference value: 1156); assay type: functional
MDA-MB-231 [5] = test: Effect on CD274 mRNA expression in human MDA-MB-231 cells at 5 to 10 uM hrs by real-time quantitative-PCR analysis; assay type: functional, cell-based; details: dose 5-10 µM
[6] = Downregulation of cell surface PD-L1 expression in human MDA-MB-231 cells assessed as mean fluorescence intensity at 5 uM incubated for 24 hrs by phycoerythrin staining based flow cytometry analysis (reference value: 1156); assay type: functional
[7] = Downregulation of cell surface PD-L1 protein expression in human MDA-MB-231 cells assessed as test to control ratio at 10 uM incubated for 24 hrs by Western blot analysis; assay type: functional
[8] = Downregulation of cell surface PD-L1 protein expression in human A549 cells assessed as test to control ratio at 10 uM incubated for 24 hrs by Western blot analysis; assay type: functional
A549 [9] = test: Effect on CD274 mRNA expression in human A549 cells at 5 to 10 uM hrs by real-time quantitative-PCR analysis; assay type: functional, cell-based; details: dose 5-10 µM
[10] = Downregulation of cell surface PD-L1 protein expression in human MDA-MB-231 cells assessed as test to control ratio at 5 uM incubated for 24 hrs by Western blot analysis; assay type: functional
[11] = Downregulation of cell surface PD-L1 expression in human MDA-MB-231 cells assessed as mean fluorescence intensity at […] incubated for 24 hrs by phycoerythrin staining based flow cytometry analysis (reference value: 1156); assay type: functional

Compound	Activity (A549 [1])	Activity (MCF7)	Activity (MDA-MB-231 [2])	T/C [3]	Flu intensity [4]	Activity (MDA-MB-231 [5])	Flu intensity [6]	T/C [7]	T/C [8]	Activity (A549 [9])	T/C [10]	Flu intensity [11]
C[C@@H]1OC(=O)/C=C/[C@@H](O)CC[C@H](C)OC(=O)[C@H](n2cnc3c2ncn2c4c(nc32)[C@H](C)OC(=O)/C=C/[C@@H](O)CC[C@H](C)OC(=O)C4)CC1=O	inactive	inactive	inactive									
C[C@@H]1OC(=O)/C=C/[C@@H](O)CC[C@H](C)OC(=O)Cc2c1nc1c3ncn([C@@H]4O[C@H](CO)[C@@H](O)[C@H]4O)c3ncn21	inactive	inactive	inactive	0.6	820	inactive	897	0.54	0.32	inactive	0.89	
C[C@@H]1OC(=O)/C=C/[C@@H](O)CC[C@H](C)OC(=O)[C@H](n2cnc3ncn4c5c(nc4c32)[C@H](C)OC(=O)/C=C/[C@@H](O)CC[C@H](C)OC(=O)C5)CC1=O	inactive	inactive	inactive									
CO[C@@H]1[C@H](O)[C@@H](CO)O[C@H]1n1cnc2c1ncn1c3c(nc21)[C@H](C)OC(=O)/C=C/[C@@H](O)CC[C@H](C)OC(=O)C3	inactive	inactive	inactive									
CN(C)C(=N)NC(=N)N [METFORMIN]												1081
